For 16 molecules, Kinact/Kl results are on record in patent publication US20250230165A1, “HETEROCYCLIC COMPOUNDS FOR USE IN THE TREATMENT OF CANCER” (ARTIOS PHARMA LIMITED, priority 2021, published 2025).

Counter-ions that a name gives are not always drawn.

The target in this experiment is T1, Human Polθ polymerase domain (aa1820-2590) (Homo sapiens, UniProt O75417).
T1 construct: Human Polθ polymerase domain (aa1820-2590) was expressed in E. coli; made in house; host or cells: E. coli
T1 sequence (O75417 1820-2590): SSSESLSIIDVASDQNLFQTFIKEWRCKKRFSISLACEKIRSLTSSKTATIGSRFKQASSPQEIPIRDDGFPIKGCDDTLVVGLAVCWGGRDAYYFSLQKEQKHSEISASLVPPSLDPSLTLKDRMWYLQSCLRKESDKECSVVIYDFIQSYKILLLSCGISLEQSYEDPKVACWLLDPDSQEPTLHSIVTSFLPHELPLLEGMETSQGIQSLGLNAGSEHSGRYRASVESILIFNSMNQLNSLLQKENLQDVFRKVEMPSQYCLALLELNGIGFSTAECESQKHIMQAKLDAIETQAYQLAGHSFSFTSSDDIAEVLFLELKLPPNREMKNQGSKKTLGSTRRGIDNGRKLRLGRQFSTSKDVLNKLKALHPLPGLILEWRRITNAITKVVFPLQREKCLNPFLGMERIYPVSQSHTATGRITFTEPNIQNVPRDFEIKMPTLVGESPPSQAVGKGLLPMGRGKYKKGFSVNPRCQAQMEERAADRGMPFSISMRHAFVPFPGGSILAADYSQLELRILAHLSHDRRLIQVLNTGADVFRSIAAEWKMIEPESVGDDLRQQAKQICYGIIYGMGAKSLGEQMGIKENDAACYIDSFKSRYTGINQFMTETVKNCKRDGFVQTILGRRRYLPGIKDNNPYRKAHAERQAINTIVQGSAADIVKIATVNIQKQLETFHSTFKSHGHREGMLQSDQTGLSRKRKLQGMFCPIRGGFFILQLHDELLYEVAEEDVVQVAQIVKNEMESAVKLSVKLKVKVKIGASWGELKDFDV
The experiment is described as follows: Polθ Polymerase Domain Kinact/KI Assay (PicoGreen). It counts as biochemical. As to conditions: 0.8 nM Polθ, 100 nM DNA substrate, kobs vs [I] fit for 2-step covalent inhibitor. In outline: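 Covalent inhibitors were tested against E. coli-expressed enzyme (0.8 nM final) with 100 nM annealed DNA substrate and […] in Tris pH 7.5 buffer, 1% DMSO. Reactions were EDTA-quenched over a 0–60 min time course and product DNA detected by PicoGreen fluorescence.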
Molecule `C=CC(=O)N1CCOC[C@@H]1c1ccc(CN2C[C@H]3CC(=O)N(c4cc(C(F)(F)F)cc(C)n4)[C@@H]3C(=O)N(C)c3cccc(C)c32)cn1` (racemic) [Example 324b, (3aR,11aS)-5-((6-((S/R)-4-acryloyl-morpholin-3-yl)pyr-idin-3-yl)methyl)-6,10-dimethyl-1-(6-methyl-4-(trifluoro-methyl)pyridin-2-yl)-1,3a,4,5,10,11a-hexahydro-2H-benzo[b]pyrrolo [2,3-f][1,4]diazo-cine-2,11(3H)-dione] showed a Kinact/Kl of 470000 M⁻¹ s⁻¹.
As for `C=CC(=O)N1CCN(c2cccc(N3C[C@H]4CC(=O)N(c5cc(C(F)(F)F)cc(C)n5)[C@@H]4C(=O)N(C)c4cccc(F)c43)n2)CC1` [Example 55, (3aR,11aS)-5-(6-(4-acryloylpiperazin-1-yl)pyridin-2-yl)-6-fluoro-10-methyl-1-(6-methyl-4-(trifluoromethyl)pyridin-2-yl)-1,3a,4,5,10,11a-hexahydro-2H-benzo[b]pyrrolo[2,3-f][1,4]diazocine-2,11(3H)-dione], the figure is 15000 M⁻¹ s⁻¹; as for `Cc1cc(C(F)(F)F)cc(N2C(=O)C[C@@H]3CN(CCN4CCOC5(C4)CN(C(=O)/C=C/CN(C)C)C5)c4c(F)cccc4N(C)C(=O)[C@H]32)n1` [Example 27, (3aR,11aS)-5-(2-(2-((E)-4-(dimethylamino)but-2-enoyl)-5-oxa-2,8-diazaspiro[3.5]nonan-8-yl)ethyl)-6-fluoro-10-methyl-1-(6-methyl-4-(trifluoromethyl)pyridin-2-yl)-1,3a,4,5,10,11a-hexahydro-2H-benzo[b]pyrrolo[2,3-f][1,4]diazocine-2,11(3H)-dione Hydrochloride], 1.05e+06 M⁻¹ s⁻¹; as for `C=CC(=O)N1CC(n2cc(CN3C[C@H]4CC(=O)N(c5cc(C(F)(F)F)cc(C)n5)[C@@H]4C(=O)N(C)c4cccc(F)c43)cn2)C1` [Example 121, (3aR,11aS)-5-((1-(1-acryloylazetidin-3-yl)-1H-pyrazol-4-yl)methyl)-6-fluoro-10-methyl-1-(6-methyl-4-(trifluoromethyl)pyridin-2-yl)-1,3a,4,5,10,11a-hexahydro-2H-benzo[b]pyrrolo[2,3-f][1,4]diazocine-2,11(3H)-dione], 540000 M⁻¹ s⁻¹.
Under `C=CC(=O)N1CCOC[C@@H]1c1ccc(CN2C[C@H]3CC(=O)N(c4cc(C(F)(F)F)cc(C)n4)[C@@H]3C(=O)N(C)c3cccc(C)c32)cc1` (racemic) [Example 323b, (3aR,11aS)-5-(4-((S/R)-4-acryloyl-morpholin-3-yl)-benzyl)-6,10-dimeth-yl-1-(6-methyl-4-(trifluoromethyl)-pyridin-2-yl)-1,3a,4,5,10,11a-hexahydro-2H-benzo[b]pyrrolo [2,3-f][1,4]diazocine-2,11(3H)-dione] stands 330000 M⁻¹ s⁻¹; under `C=CC(=O)N1CCn2c(nnc2CN2C[C@H]3CC(=O)N(c4cc(C(F)(F)F)cc(C)n4)[C@@H]3C(=O)N(C)c3cccc(F)c32)C1` [Example 134, (3aR,11aS)-5-((7-acryloyl-5,6,7,8-tetrahydro-[1,2,4]triazolo[4,3-a]pyrazin-3-yl)methyl)-6-fluoro-10-methyl-1-(6-methyl-4-(trifluoromethyl)pyridin-2-yl)-1,3a,4,5,10,11a-hexahydro-2H-benzo[b]pyrrolo[2,3-f][1,4]diazocine-2,11(3H)-dione], 62000 M⁻¹ s⁻¹; under `C=CC(=O)N1CCN2CCN(C(=O)CN3C[C@H]4CC(=O)N(c5cc(C(F)(F)F)cc(C)n5)[C@@H]4C(=O)N(C)c4cccc(F)c43)CC2C1` (mixture of isomers) [Example 76a, (3aR,11aS)-5-(2-((R/S)-8-acryloyloctahydro-2H-pyrazino[1,2-a]pyrazin-2-yl)-2-oxoethyl)-6-fluoro-10-methyl-1-(6-methyl-4-(trifluoromethyl)pyridin-2-yl)-1,3a,4,5,10,11a-hexahydro-2H-benzo[b]pyrrolo[2,3-f][1,4]diazocine-2,11(3H)-dione], 220000 M⁻¹ s⁻¹.
Under `C=CC(=O)N1CC2(CN(CCN3C[C@H]4CC(=O)N(c5cc(C(F)(F)F)cc(C)n5)[C@@H]4C(=O)N(C)c4cccc(C)c43)CC2C#N)C1` (single isomer, unassigned) [Example 118a] stands 3e+06 M⁻¹ s⁻¹; under `C=CC(=O)N1CCn2nc(CN3C[C@H]4CC(=O)N(c5cc(C(F)(F)F)cc(C)n5)[C@@H]4C(=O)N(C)c4cccc(C)c43)cc2C1` [Example 173, (3aR,11aS)-5-((5-acryloyl-4,5,6,7-tetrahydropyrazolo [1,5-a]pyrazin-2-yl)methyl)-6,10-dimethyl-1-(6-methyl-4-(trifluoro-methyl)pyridin-2-yl)-1,3a,4,5,10, 11a-hexahydro-2H-benzo[b]pyrrolo [2,3-f][1,4]diazo-cine-2,11(3H)-dione], 2.92e+06 M⁻¹ s⁻¹; under `C=CC(=O)N1CC(N2CC[C@@H](CN3C[C@H]4CC(=O)N(c5cc(C(F)(F)F)cc(C)n5)[C@@H]4C(=O)N(C)c4cccc(F)c43)C2)C1` [Example 214, (3aR,11aS)-5-(((R)-1-(1-acryloylazetidin-3-yl)pyrrolidin-3-yl)methyl)-6-fluoro-10-methyl-1-(6-methyl-4-(trifluoromethyl)pyridin-2-yl)-1,3a,4,5,10,11a-hexahydro-2H-benzo[b]pyrrolo [2,3-f][1,4] diazocine-2,11 (3H)-dione], 320000 M⁻¹ s⁻¹.
`C=C(CN(C)C)C(=O)N[C@@H]1CCc2nc(CN3C[C@H]4CC(=O)N(c5cc(C(F)(F)F)cc(C)n5)[C@@H]4C(=O)N(C)c4cccc(C)c43)cn2C1` (mixture of isomers) [Example 329a, N-((R/S)-2-(((3aR, 11aS)-6,10-dimethyl-1-(6-methyl-4-(tri-fluoromethyl)pyridin-2-yl)-2,11-dioxo-1,2,3,3a,4,10,11,11a-octahydro-5H-benzo [b]pyrrolo[2,3-f][1,4]diazocin-5-yl)methyl)-5,6,7,8-tetrahydro-imidazo[1,2-a]pyridin-6-yl)-2-((dimethyl-amino)methyl)acryl-amide] showed a Kinact/Kl of 1.73e+06 M⁻¹ s⁻¹.
Under `Cc1cc(C(F)(F)F)cc(N2C(=O)C[C@@H]3CN(Cc4ccc5c(c4)CN(C(=O)/C=C/CN(C)C)C5)c4c(F)cccc4N(C)C(=O)[C@H]32)n1` [Example 148, (3aR,11aS)-5-((2-((E)-4-(dimethylamino)but-2-enoyl)isoindolin-5-yl)methyl)-6-fluoro-10-methyl-1-(6-methyl-4-(trifluoromethyl)pyridin-2-yl)-1,3a,4,5,10,11a-hexahydro-2H-benzo[b]pyrrolo[2,3-f][1,4]diazocine-2,11(3H)-dione] stands 1.65e+06 M⁻¹ s⁻¹.
Under `C=C(CN(C)C)C(=O)N1CC(OCCCN2C[C@H]3CC(=O)N(c4cc(C(F)(F)F)cc(C)n4)[C@@H]3C(=O)N(C)c3cccc(F)c32)C1` [Example 150, (3aR, 11aS)-5-(3-((1-(2-((dimethylamino)methyl)acryloyl)azetidin-3-yl)oxy)propyl)-6-fluoro-10-methyl-1-(6-methyl-4-(trifluoromethyl)pyridin-2-yl)-1,3a,4,5,10,11a-hexahydro-2H-benzo[b]pyrrolo[2,3-f][1,4]diazocine-2,11(3H)-dione] stands 3.35e+06 M⁻¹ s⁻¹.
Under `Cc1cc(C(F)(F)F)cc(N2C(=O)C[C@@H]3CN(Cc4ccc([C@@H]5CCCN5C(=O)/C=C/CN(C)C)cc4)c4c(F)cccc4N(C)C(=O)[C@H]32)n1` (racemic) [Example 170b, (3aR,11aS)-5-(4-((S/R)-1-((E)-4-(dimethylamino)-but-2-enoyl)pyr-rolidin-2-yl)benz-yl)-6-fluoro-10-methyl-1-(6-methyl-4-(tri-fluoromethyl)-pyridin-2-yl)-1,3a,4,5,10,11a-hexahydro-2H-benzo[b]pyrrolo [2,3-f][1,4]diazo-cine-2,11(3H)-dione] stands 410000 M⁻¹ s⁻¹.
Turning to `C=CC(=O)N1CC2(CN(CCN3C[C@H]4CC(=O)N(c5cc(C(F)(F)F)cc(C)n5)[C@@H]4C(=O)N(C)c4cccc(C)c43)CC2(C)C#N)C1` (single isomer, unassigned) [Example 119a], the Kinact/Kl amounted to 4.57e+06 M⁻¹ s⁻¹.
As for `C=CC(=O)N1Cc2nc(CN3C[C@H]4CC(=O)N(c5cc(C(F)(F)F)cc(C)n5)[C@@H]4C(=O)Nc4cccc(Cl)c43)cn2C[C@@H]1C` (racemic) [Example 144b, (3aR,11aS)-5-(((S/R)-7-acryloyl-6-methyl-5,6,7,8-tetrahydroimidazo[1,2-a]pyrazin-2-yl)methyl)-6-chloro-1-(6-methyl-4-(trifluoromethyl)pyridin-2-yl)-1,3a,4,5,10,11a-hexahydro-2H-benzo[b]pyrrolo[2,3-f][1,4]diazocine-2,11(3H)-dione], the figure is 2e+06 M⁻¹ s⁻¹.
